Data on twelve molecules can be found in ChEMBL document CHEMBL3227982, “Synthesis of some 4-substituted 8-amino-6-methoxyquinolines as potential antimalarials” (J Med Chem, 1979).

Active and inactive are the calls of the source. The calls are words filed in the database; no cut-off is given here.

Data set [1] relates to Plasmodium berghei. As to the kind of experiment: Antimalarial activity against blood schizonticidal Plasmodium berghei infected in mouse assessed as change in host mean survival time at 20 mg/kg. Type of data set: functional.
Data set [2] has as its system Plasmodium berghei. The data set is described as follows: Antimalarial activity against blood schizonticidal Plasmodium berghei infected in mouse assessed as change in host mean survival time at 40 mg/kg. Type of data set: functional.
The subject of data set [3] is Plasmodium berghei. The data set is described as follows: Antimalarial activity against blood schizonticidal Plasmodium berghei infected in mouse assessed as change in host mean survival time at 80 mg/kg. Type of data set: functional.
In data set [4] the test system is Plasmodium berghei. As to the kind of experiment: Antimalarial activity against blood schizonticidal Plasmodium berghei infected in mouse assessed as change in host mean survival time at 160 mg/kg. Type of data set: functional.
For data set [5], the system named is Plasmodium berghei. As to the kind of experiment: Antimalarial activity against blood schizonticidal Plasmodium berghei infected in mouse assessed as change in host mean survival time at 320 mg/kg. Type of data set: functional.
The test system of data set [6] is Plasmodium berghei. As to the kind of experiment: Antimalarial activity against blood schizonticidal Plasmodium berghei infected in mouse assessed as change in host mean survival time at 640 mg/kg. Type of data set: functional.
Data set [7] has as its system Plasmodium cynomolgi. As to the kind of experiment: Antimalarial activity against Plasmodium cynomolgi infected in rhesus monkey assessed as disease relapsing day at 0.125 mg/kg administered qd for 7 days via stomach tube. Type of data set: functional.
The subject of data set [8] is Plasmodium berghei yoelii. As to the kind of experiment: Antimalarial activity against sporozite stage of Plasmodium berghei yoelii infected in mouse assessed as curative activity at 160 mg/kg, po. Type of data set: functional, organism-based. Details: dose 160 mg/kg.
Data set [9] concerns Plasmodium berghei yoelii. The data set is described as follows: Antimalarial activity against sporozite stage of Plasmodium berghei yoelii infected in mouse assessed as host survival at 10 to 40 mg/kg, po. Type of data set: functional, organism-based.
Data set [10] relates to Plasmodium berghei yoelii. The data set is described as follows: Antimalarial activity against sporozite stage of Plasmodium berghei yoelii infected in mouse assessed as host survival at 10 to 160 mg/kg, sc. Type of data set: functional, organism-based.
The subject of data set [11] is Mus musculus. As to the kind of experiment: Toxicity in mouse infected with blood schizonticidal Plasmodium berghei assessed as mortality at 320 mg/kg measured on days 2 to 5 after infection. Type of data set: organism-based. Details: dose 320 mg/kg. The note with it: in vivo.
In data set [12] the test system is Mus musculus. As to the kind of experiment: Toxicity in mouse infected with blood schizonticidal Plasmodium berghei assessed as mortality at 640 mg/kg measured on days 2 to 5 after infection. Details: dose 640 mg/kg. The note with it: in vivo. Type of data set: organism-based.
Data set [13] relates to Plasmodium cynomolgi. The data set is described as follows: Antimalarial activity against Plasmodium cynomolgi infected in rhesus monkey assessed as curative activity without disease relapses until 90 days at 0.25 mg/kg administered qd for 7 days via stomach tube. Details: dose 0.25 mg/kg. Type of data set: functional, organism-based.
In data set [14] the test system is Plasmodium cynomolgi. As to the kind of experiment: Antimalarial activity against Plasmodium cynomolgi infected in rhesus monkey assessed as disease relapsing day at 0.25 mg/kg administered qd for 7 days via stomach tube. Type of data set: functional.
Data set [15] deals with Plasmodium cynomolgi. The data set is described as follows: Antimalarial activity against Plasmodium cynomolgi infected in rhesus monkey assessed as disease relapsing day at 0.5 mg/kg administered qd for 7 days via stomach tube. Type of data set: functional.
In data set [16] the test system is Plasmodium cynomolgi. As to the kind of experiment: Antimalarial activity against Plasmodium cynomolgi infected in rhesus monkey assessed as disease relapsing day at 1 mg/kg administered qd for 7 days via stomach tube. Type of data set: functional.
For data set [17], the system named is Plasmodium cynomolgi. The data set is described as follows: Antimalarial activity against Plasmodium cynomolgi infected in rhesus monkey assessed as curative activity without disease relapses until 90 days at 1 mg/kg administered qd for 7 days via stomach tube. Type of data set: functional, organism-based. Details: dose 1 mg/kg.
In data set [18] the test system is Plasmodium cynomolgi. The data set is described as follows: Antimalarial activity against Plasmodium cynomolgi infected in rhesus monkey assessed as curative activity without disease relapses until 90 days at 0.125 mg/kg administered qd for 7 days via stomach tube. Type of data set: functional, organism-based. Details: dose 0.125 mg/kg.
In data set [19] the test system is Mus musculus. The data set is described as follows: Toxicity in mouse infected with blood schizonticidal Plasmodium berghei assessed as mortality at 80 mg/kg measured on days 2 to 5 after infection. Type of data set: organism-based. Details: dose 80 mg/kg. The note with it: in vivo.
Data set [20] deals with Mus musculus. As to the kind of experiment: Toxicity in mouse infected with blood schizonticidal Plasmodium berghei assessed as mortality at 160 mg/kg measured on days 2 to 5 after infection. Type of data set: organism-based. Details: dose 160 mg/kg. Particulars: in vivo.
The test system of data set [21] is Plasmodium cynomolgi. As to the kind of experiment: Antimalarial activity against Plasmodium cynomolgi infected in rhesus monkey assessed as curative activity without disease relapses until 90 days at 0.375 mg/kg administered qd for 7 days via stomach tube. Type of data set: functional, organism-based. Details: dose 0.375 mg/kg.
Data set [22] concerns Plasmodium cynomolgi. The data set is described as follows: Antimalarial activity against Plasmodium cynomolgi infected in rhesus monkey assessed as curative activity without disease relapses until 90 days at 0.75 mg/kg administered qd for 7 days via stomach tube. Type of data set: functional, organism-based. Details: dose 0.75 mg/kg.
The test system of data set [23] is Plasmodium cynomolgi. The data set is described as follows: Antimalarial activity against Plasmodium cynomolgi infected in rhesus monkey assessed as disease relapsing day at 0.375 mg/kg administered qd for 7 days via stomach tube. Type of data set: functional.

Take `COc1ccc(SCCc2ccnc3c(NC(C)CCCN)cc(OC)cc23)cc1` (configuration not stated): the MST turned out to be 0.1 days in data set [1]; 0.3 days in data set [2]; 2.1 days in data set [3]; 2.7 days in [4]; 6.1 days in data set [5]; 7.5 days in data set [6]. Also, in [7], the Time was 9 days. Moreover, in data set [8], the outcome was Active. Moreover, the outcome in data set [9] and in data set [10] was inactive.
Turning to `CCc1ccnc2c(NC(C)CCCN(CC)CC)cc(OC)cc12` (configuration not stated), the MST came out at 1.1 days in [1], 1.5 days in data set [2], 3.7 days in data set [3] and 6.6 days in data set [4]. Besides, the Activity entry in data set [11] and in data set [12] was “Toxic” throughout.
Take `C=Cc1ccnc2c(NC(C)CCCN)cc(OC)cc12` (configuration not stated): the MST came out at 1.1 days in [1]; 1.7 days in data set [2]; 5.9 days in [3]; 8.7 days in [4]; 7.7 days in [5]. The Activity result in data set [11] and in data set [12] was “Toxic” throughout. Besides, in [13], the result was inactive. Besides, the results for the Time in data set [14], in data set [15] and in data set [16] were 7 days, 10 days and 24 days, respectively.
As to `CCc1ccnc2c(NCCCCCCN(CC)CC)cc(OC)cc12`, the MST in data set [1] stood at 0.5 days; in data set [2], 1.7 days; in data set [3], 3.3 days; in data set [4] it was 5.5 days; in [5] it was 6.7 days; in data set [6] it was 7.9 days.
For `COc1cc(NC(C)CCCN)c2nccc(CCSc3ccc(F)cc3)c2c1` (configuration not stated), the outcome in data set [13] and in data set [17] was inactive. Besides, the figures for the Time in data set [14], in data set [15] and in data set [16] were 13 days, 7 days and 6 days, respectively.
As for `CCc1ccnc2c(NC(C)CCCN)cc(OC)cc12` (configuration not stated), the MST in data set [1] was found to be 2.8 days; in data set [2], 3.8 days; in data set [3], 5.2 days; in data set [4], 6.4 days; in [5], 11.5 days. The outcome in data set [13] and in data set [18] was inactive. The Time in data set [14] turned out to be 7 days; in data set [15], 28 days; in data set [16] it was 37 days.
For `CCc1ccnc2c(NCCCCCCN3CCN(CCO)CC3)cc(OC)cc12`, the MST in data set [1] was determined as 0.1 days; in data set [2] it was 0.7 days; in data set [3] it was 2.7 days; in data set [4], 2.5 days; in data set [5], 4.1 days. Also, in data set [12], the Activity result is “Toxic”.
As to `CCc1ccnc2c(NC(C)CCCNC(C)C)cc(OC)cc12` (configuration not stated), the MST in [1] is -0.3 days; in [2], 2.3 days; in data set [3] it was 3.5 days; in data set [4], 6.7 days; in [5] it was 10.5 days. Also, the Activity result in [12] was “Toxic”.
As for `CCc1ccnc2c(NCCCCCCN)cc(OC)cc12`, the MST in data set [2] was 0.8 days; in [3], 4.8 days. The Activity entry in [19] and in [20] was “Toxic” each time.
Consider `COc1cc(NC(C)CCCN)c2nccc(CCSc3ccc(Cl)cc3)c2c1` (configuration not stated), for which the MST in data set [1] came to 2.3 days; in [2] it was 3.3 days; in [3], 6.3 days; in data set [4] it was 7.7 days; in data set [5], 8.9 days; in data set [6] it was 14.6 days.
For the molecule `COc1cc(NC(C)CCCN)c2ncccc2c1` (configuration not stated) [PRIMAQUINE], the MST was found to be 4 days in [1], 5 days in data set [2] and 9.4 days in [3]. Besides, the Activity result in data set [20], in data set [11] and in data set [12] was “Toxic” throughout. Further, in data set [21], the result was inactive. The outcome in [22] was Active. Also, the Time in [15] and in data set [23] was 11 days throughout.
With `CCc1ccnc2c(NCCCCN)cc(OC)cc12`, the MST was found to be 0.9 days in [1]; 1.7 days in data set [2]; 2.1 days in data set [3]; 2.9 days in data set [4]; 6.3 days in data set [5]; 7.9 days in data set [6]. For the same molecule, the Activity result in [12] was “Non-toxic”.
